The values below come from the OPERA property sets (Mansouri et al. 2018).

Molecules are shown by their SMILES.

Settings in the first data set: not given
`C#C[C@]1(O)CC[C@H]2[C@@H]3CCC4=C(CCC(=O)C4)[C@H]3CC[C@@]21C` had a melting point of 170 °C. As for `ClC(Br)C(Cl)Br` (configuration not stated), the boiling point was 195 °C and the melting point is -26 °C. For `Clc1cc(-c2c(Cl)c(Cl)cc(Cl)c2Cl)c(Cl)c(Cl)c1Cl`, the log10 Henry constant (atm·m³/mol) was -5. The compound `CC(C)CCC[C@@H](C)[C@H]1CC[C@H]2[C@@H]3CC[C@@H]4C[C@H](O)CC[C@]4(C)[C@H]3CC[C@]12C` came in with a melting point of 143 °C. In the case of `C1CCN(CCN2CCCCC2)CC1`, the boiling point turned out to be 265 °C and the melting point is -0.5 °C. `FC(F)(F)c1ccccc1Cl` showed a boiling point of 152 °C, a log10 vapour pressure (mmHg) of 0.706 and a melting point of -6 °C. As for `O=C(Nc1ncc([N+](=O)[O-])s1)c1cccs1`, the melting point is 256 °C. Still for that read-out and setting: under `CC(C(=O)O)c1ccc2c(c1)[nH]c1ccc(Cl)cc12` (configuration not stated) stands 198 °C. `CC(C)OP(=O)(OC(C)C)OC(C)C`: the boiling point came to 219 °C.

As for `Cc1ccc(S(=O)(=O)NC(=O)NC2CCCCC2)cc1`, the melting point is 175 °C. Regarding `CCCCCCNC(=O)COC(=O)c1ccccc1`, the melting point was found to be 130 °C. Take `ClCc1ccc(Br)cc1`: the boiling point is 236 °C and the melting point came out at 50 °C. Consider `C#CCOC(=O)/C=C(C)/C=C/CC(C)CCCC(C)C` (configuration not stated), for which the log10 vapour pressure (mmHg) is -5.14. Turning to `CC(C)CNCC(C)C`, the boiling point amounted to 140 °C, the log10 vapour pressure (mmHg) is 0.862, the melting point was -73.5 °C and the ready biodegradability entry is on record as “readily biodegradable”.

In turn, `CN(C(=O)CN(CCO)CC(=O)N(C)C(C)(C)Cc1ccccc1)C(C)(C)Cc1ccccc1` came in with a melting point of 104 °C. Same read-out and setting: under `C=C(C)c1cc(=O)c(O)ccc1CC=C(C)C` stands 71.5 °C. The compound `CCON=C(CC)C1=C(O)CC(c2c(C)cc(C)cc2C)CC1=O` (configuration not stated) registered a log10 vapour pressure (mmHg) of -8.56 and a melting point of 106 °C.

Turning to `CN(C)CCCOc1nn(Cc2ccccc2)c2ccccc12.Cl`, the melting point was determined as 160 °C.

For `BrC=Cc1ccccc1`, the melting point is 7 °C and the ready biodegradability entry is listed as “not readily biodegradable”. Regarding `CCC1(C)OC(=O)NC1=O` (configuration not stated), the melting point was 46 °C. Consider `CCCCCCCCCCCCCCCCCCCCCCCCCCO`, for which the melting point stood at 80 °C and the ready biodegradability entry is on record as “readily biodegradable”. For `CCCCCCCCCCCCCCCC(=O)OC[C@@H](O)[C@H]1OC[C@H](O)[C@H]1O`, the ready biodegradability entry is “readily biodegradable”. `CC(C(=O)O)c1ccc(C(=O)c2cccs2)cc1` (configuration not stated) came in with a melting point of 124 °C. The compound `CCCNC(=O)NS(=O)(=O)c1ccc(Cl)cc1` registered a melting point of 128 °C. Consider `CCOc1ccc(CC(=O)O)cc1`, for which the melting point was found to be 88.5 °C. Compound `c1ccc(CC2CCCCN2)cc1` (configuration not stated) had a boiling point of 268 °C and a melting point of 32 °C. In the case of `COCCN(C(=O)CCl)c1c(C)cccc1C`, the boiling point was determined as 320 °C, the log10 vapour pressure (mmHg) is -4.95 and the melting point came to 46 °C. `O=S(=O)([O-])CCN1CC[NH+](CCO)CC1` displayed a melting point of 234 °C. `COc1c(Cl)c(C)c2c(c1Cl)OC(=O)c1c(C)c(Cl)c(O)c(Cl)c1O2` registered a melting point of 232 °C. Compound `CC(=O)OOC(C)=O` returned a melting point of 30 °C. In turn, `CC(=O)OC(C(=O)Cl)c1ccccc1` (configuration not stated) gave a melting point of 36 °C. For `CC1(C)C2CCC1(C)C(Cl)C2` (configuration not stated), the boiling point was 208 °C and the melting point came to 132 °C. `CC(Cl)C(Cl)(Cl)Cl` (configuration not stated) had a boiling point of 152 °C and a melting point of -64 °C. For the compound `C/C=C/C=O`, the boiling point worked out at 103 °C, the log10 Henry constant (atm·m³/mol) was -4.84, the log10 vapour pressure (mmHg) was found to be 1.48 and the melting point was -76.2 °C.

Regarding `COc1ccc(CCCCO)cc1`, the melting point was 3.5 °C.

In the case of `CSB(C)C`, the boiling point was found to be 71 °C and the melting point was -84 °C. As to `CC1CCCC1C` (configuration not stated), the log10 biodegradation half-life (days) was 0.602 and the log10 vapour pressure (mmHg) came out at 1.67.

The compound `O=C(Nc1ccc2ncccc2c1)Nc1ccc2ncccc2c1` yielded a melting point of 262 °C.

Take `Oc1ccc(C2(c3ccc(O)cc3)CCCCC2)cc1`: the ready biodegradability entry is “not readily biodegradable”.

Consider `C=Cc1cccc(CC)c1`, for which the boiling point worked out at 190 °C, the log10 vapour pressure (mmHg) is -0.0947, the melting point is -101 °C and the ready biodegradability entry is recorded as “not readily biodegradable”.

Take `CCCC(C)OC(C)=O` (configuration not stated): the boiling point was determined as 130 °C and the melting point was -100 °C. In turn, `CC1(O)CCCCCC1` registered a boiling point of 184 °C. For the compound `CC(Cl)C(=O)O` (configuration not stated), the boiling point came out at 185 °C. As to `Clc1cc(Cl)c(-c2cc(Cl)c(Cl)cc2Cl)cc1Cl`, the log10 Henry constant (atm·m³/mol) was -4.64, the log10 Koa was 9.73, the log10 Koc (L/kg) came out at 5.58 and the log10 vapour pressure (mmHg) is -5.46. On to `CN(C)CCCN1c2ccccc2Sc2ccc(Cl)cc21.Cl`, for which the melting point is 195 °C.

`Cc1ccccc1C(=O)c1ccccc1` gave a boiling point of 308 °C. As to `CCCCCCOc1ccc(N)cc1`, the melting point is 44 °C. `CCOc1ccccc1F` displayed a boiling point of 171 °C and a melting point of -16.7 °C. In turn, `CN1Cc2c(N)cccc2C(c2ccccc2)C1` (configuration not stated) came in with a melting point of 180 °C.

As to `Cn1c(=O)on(-c2ccc(Cl)c(Cl)c2)c1=O`, the log10 Koc (L/kg) was determined as 3.48, the log10 vapour pressure (mmHg) is -6 and the melting point came to 123 °C.

The data set is the same for the next values; noted with them: fish.
`Oc1ccc(Cc2ccccc2)cc1` yielded a log10 BCF of 1.33 and a log10 biotransformation half-life (days) of -0.86. As for `CCC(C)=NO`, the log10 BCF stood at 0.7 and the log10 biotransformation half-life (days) is -1.33. As to `C1CCC(CCC2CCCCC2)CC1`, the log10 biotransformation half-life (days) turned out to be 0.13. For `Clc1cc2c(c(Cl)c1Cl)Oc1c(cc(Cl)c(Cl)c1Cl)O2`, the log10 BCF stood at 3.92 and the log10 biotransformation half-life (days) worked out at 1.3.

Turning to `Clc1cc(Cl)c2cc(Cl)ccc2c1`, the log10 BCF amounted to 4.43.

The compound `Clc1cc(-c2c(Cl)c(Cl)cc(Cl)c2Cl)c(Cl)c(Cl)c1Cl` had a log10 biotransformation half-life (days) of 2.47. Consider `Clc1cc(Cl)c(-c2cc(Cl)c(Cl)cc2Cl)cc1Cl`, for which the log10 BCF was determined as 5.43 and the log10 biotransformation half-life (days) was 2.55.

As usually defined, the melting point is the temperature, or range, at which the solid turns liquid. Usually boiling point stands for the temperature at which the vapour pressure of the liquid equals the pressure above it.
